From patent US6734318B2, “Fluorous triphase and other multiphase systems” (University of Pittsburgh, priority 2001, dated 2004)
Read-outs that look alike come from different tables or passages of the source. Marks after values point to notes of the source that are not given here.

Key:
[1] = Transfer of organic compounds between two MeCN phases through an FC-72 phase (U-tube); format: physicochemical; details: two MeCN phases through FC-72, 23° C., 3 days
[2] = between FC-72 and MeOH
[3] = Selective transport of a fluorous-tagged component of a mixture through FC-72 between two acetonitrile phases; format: physicochemical
[4] = Transfer of 2a between two organic phases through an FC-72 phase (U-tube); format: physicochemical; details: FC-72 stirred 23° C., 3 days
Description: 2-(2-Naphtylethanol) 2a (10 mg) was dissolved in an organic solvent (1 ml) and the mixture was put into one side (side A) of U-tube 10 of FIG. 1, in which FC-72 (10 ml) was placed. The other organic solvent was put into the other side (side B) of U-tube 10 and the center phase (FC-72) was stirred (via, for example, magnetic stirring element 130) at 23° C. for 3 days without mixing the interfaces between the organic and FC-72 layers. The weights of each organic phase were measured after evaporation.

[5] = U-tube transport of guest molecules from aqueous S-phase through FC-72 F-phase to basic aqueous P-phase, with or without fluorous transport agent 3b; format: physicochemical; details: transport agent 3b about 1 mM in FC-72; S-phase water, P-phase pH 11.5 phosphate buffer; ambient temperature
Description: In an illustrative example, several transport experiments were carried out with a variety of guest molecules and fluorous transport agent 3b. The F-phase included transport agent 3b, at about 1 mM in the fluorous solvent FC-72. This F-phase was contacted in a U-tube with a first phase containing various organic compounds in water and a second aqueous phase containing hydroxide ion (pH 11.5 phosphate buffer). After various periods of time at ambient temperature, a portion of the more basic, P-phase was removed and subjected to quantitative analysis by UV absorbance spectrophotometry. The measured absorbances were converted to the concentration of each organic compound by the use of a calibration curve. The organic solutes tested were phenobarbital, secobarbital, mephobarbital, thiopental, 2-ethyl, 2-phenylmalonamide, and p-toluenesulfonate. […] The amount of each compound transported (as a fraction of the amount in the S-phase) is plotted versus time. The data points represent behavior of mephobarbital (represented by solid squares), secobarbital (represented by open squares), thiopental (represented by triangles), phenobarbital (represented by diamonds), malonamide and p-toluenesulfonate (both represented by open circles). Each of the barbiturates was transported through the fluorous phase in the presence of transport agent 3b. […]

## CC(N)c1cccc2ccccc12 (stereo not shown) [1-(1-naphthyl)ethylamine]
[1]
  ratio (A/B): 82/18

## CC(O)c1ccc2ccccc2c1 (stereo not shown) [1-(2-naphthyl)ethanol]
[1]
  ratio (A/B): 96/4

## CC(C)[Si](CCC(F)(F)C(F)(F)C(F)(F)C(F)(F)C(F)(F)C(F)(F)C(F)(F)C(F)(F)F)(OCCc1ccc2ccccc2c1)C(C)C [1a, diisopropyl-1H,1H,2H,2H-perfluorodecanylsilyl 2-naphthylethyl ether]
FC-72 / CH2Cl2, 23 C
  partition coefficient: 0.14
FC-72 / DMF, 23 C
  partition coefficient: 0.38
FC-72 / EtOH, 23 C
  partition coefficient: 0.91
FC-72 / MeCN, 23 C
  partition coefficient: 0.74
FC-72 / MeOH, 23 C
  partition coefficient: 0.92
FC-72 / THF, 23 C
  partition coefficient: 0.04
[2]
  Kp (partition coefficient): 0.92

## CC(C)[Si](CCC(F)(F)C(F)(F)C(F)(F)C(F)(F)C(F)(F)C(F)(F)F)(OCCc1ccc2ccccc2c1)C(C)C [1c, Diisopropyl-1H,1H,2H,2H-perfluorooctanylsilyl 2-naphthylethyl ether]
[2]
  Kp (partition coefficient): 0.39

## CC(C)[Si](CCC(F)(F)C(F)(F)C(F)(F)C(F)(F)C(F)(F)C(F)(F)C(F)(F)C(F)(F)F)(O[C@@H](C)c1ccc2ccccc2c1)C(C)C [1f, diisopropyl-1H,1H,2H,2H-perfluorodecanylsilyl (S)-(−)-1-(2-naphthyl)ethyl ether]
[2]
  Kp (partition coefficient): 1.5

## CC(C)[Si](CCC(F)(F)C(F)(F)C(F)(F)C(F)(F)C(F)(F)C(F)(F)C(F)(F)C(F)(F)F)(OCC=Cc1ccccc1)C(C)C [1g, (3,3,4,4,5,5,5,6,6,7,7,8,8,9,9,10,10,10,10-heptadecafluorodecyl)-diisopropyl(3-phenyl-allyloxy)silane]
[3]; P-phase removed at 3 h, 1/1 mixture of 2a and 1g in acetonitrile S-phase
  Mass of the residue (P-phase): 4.5 mg
[3]; P-phase removed at 7 h, fresh acetonitrile after each removal
  Mass of the residue (P-phase): 6 mg
[3]; P-phase removed at 24 h, fresh acetonitrile after each removal
  Mass of the residue (P-phase): 7 mg
[2]
  Kp (partition coefficient): 1.3

## CCc1ccc2ccccc2c1 [2-ethylnaphthalene]
[1]
  ratio (A/B): 66/33^a

## CC(=O)Oc1ccc2ccccc2c1 [2-naphthyl acetate]
[1]
  ratio (A/B): 94/6

## O=C(O)Cc1ccc2ccccc2c1 [2-naphthylacetic acid]
[1]
  ratio (A/B): >99/1

## CC(=O)Cc1ccc2ccccc2c1 [2-naphthylacetone]
[1]
  ratio (A/B): 91/9

## N#CCc1ccc2ccccc2c1 [2-naphthylacetonitrile]
[1]
  ratio (A/B): 99/1

## OCCc1ccc2ccccc2c1 [2a, 2-(2-naphthyl)ethanol]
[4]; side A MeCN, side B MeCN
  ratio of 2a (A/B): 99/1
[4]; side A MeCN, side B MeOH
  ratio of 2a (A/B): >99/1
[4]; side A MeCN, side B THF
  ratio of 2a (A/B): >99/1
[4]; side A MeOH, side B MeCN
  ratio of 2a (A/B): 99/1
[4]; side A MeOH, side B MeOH
  ratio of 2a (A/B): 99/1
[4]; side A MeOH, side B THF
  ratio of 2a (A/B): 96/4
[4]; side A THF, side B MeOH
  ratio of 2a (A/B): 97/3
[4]; side A THF, side B THF
  ratio of 2a (A/B): 90/10
[1]
  ratio (A/B): 99/1
[3]; after 1d, 1/1 mixture with 1g in acetonitrile S-phase
  presence in P-phase by TLC or 1H NMR: not detected

## OCC=Cc1ccccc1 [cinnamyl alcohol]
[1]
  ratio (A/B): 99/1

## CCCCCCCCCCCCO [dodecanol]
[1]
  ratio (A/B): 96/4

## N#CCC#N [malononitrile]
[1]
  ratio (A/B): >99/1

## p-toluenesulfonate
[5]
  transport through the fluorous phase to the P-phase: no transport
